Assay results taken from ChEMBL document CHEMBL1255319, “Predictive values of the human immunodeficiency virus phenotype and genotype and of amprenavir and lopinavir inhibitory quotients in heavily pretreated patients on a ritonavir-boosted dual-protease-inhibitor regimen” (Antimicrob Agents Chemother, 2008).
≈ marks a conversion by molar mass, not a printed value.

How the values were obtained:
[1] = system: Human immunodeficiency virus 1; assay: Antiviral activity against HIV1 infected in human; format: functional
Homo sapiens = species on record: Homo sapiens; assay: fCmin in HIV1-infected patient at 600 mg, BID measured on week 2 by HPLC; details: in vivo
[2] = system: Human immunodeficiency virus; assay: Antiviral activity in HIV infected in patient having Cmin-corrected GIQ value < 75 assessed as viral copies; format: functional
[3] = system: Human immunodeficiency virus 1; assay: Antiviral activity against HIV1 infected in human in presence of human serum; format: functional
[4] = Inhibitory quotient, ratio of fCmin to IC90 for HIV1 infected in patient at 600 mg, BID
[5] = Inhibitory quotient, ratio of Cmin to IC90 for HIV1 infected in patient in presence of human serum at 600 mg, BID
[6] = system: Human immunodeficiency virus; assay: Antiviral activity in HIV infected in patient having Cmin-corrected GIQ value > 75 assessed as viral copies; format: functional

**Q.** Which results are given for `CC(C)CN(C[C@@H](O)[C@H](Cc1ccccc1)NC(=O)O[C@H]1CCOC1)S(=O)(=O)c1ccc(N)cc1` [AMPRENAVIR]?
**A.** IC90 [1]: 0.0578 µg/mL (≈ 0.114 µM); fCmin (Homo sapiens): 177 ng/mL; log10cfu [2]: 0.19 log10 copies/ml; IC90 [3]: 0.453 µg/mL; Ratio [4]: 2.5; Ratio [5]: 3.6; log10cfu [6]: 1.23 log10 copies/ml
